Assay results: article PMC7845594, “Novel Immune Modulators Enhance Caenorhabditis elegans Resistance to Multiple Pathogens” (mSphere, 2021)
“And” between values parts separate entries of the source, which are not always exact repeats. Equal entries are not always repeated.

What was measured:
SKN-1/Nrf pathway = test: gst-4p::GFP reporter; type: in vivo, Caenorhabditis elegans; details: 100 μM in 1% DMSO, no pathogen
From the text: To test activation of these pathways, worms carrying GFP-based reporters for the SKN-1/Nrf, PMK-1/p38 MAPK, and DAF-16/FOXO pathways (gst-4p::GFP, irg-5p::GFP, and DAF-16::GFP, respectively) were exposed to each compound in S Basal medium in the absence of the pathogen.
FIG 4 A subset of LK molecules activates reporters for the SKN-1/Nrf2 or PMK-1/p38 MAPK pathways. […] Also present are DMSO and ethanol negative controls for LK compounds and juglone, respectively. The fluorescence intensity was normalized to that of DMSO. (B) Worms carrying an irg-5p::GFP reporter for PMK-1/p38 MAPK activity were incubated at 25, 50, or 100 μM in 1% DMSO. Positive and negative controls consisted of 100 μM RPW-24 in 1% DMSO and 1% DMSO alone. Fluorescence was measured at 24 h. For both panels, ∼50 worms were used per well, and at least three wells were used per condition for each biological replicate. Mean values from at least three biological replicates are shown. *, P < 0.05; **, P < 0.01; ***, P < 0.001 compared to the solvent control. P values were calculated using Student’s t test. Error bars represent the standard error of the mean.
Worms were washed three times prior to incubation with compounds or DMSO control and diluted in S Basal medium supplemented with E. coli OP50 (OD600 = 0.08) as a food source. The fluorescence fold increase for gst-4p::GPF was taken as the fluorescence of each well and was normalized to the well’s fluorescence at 0 h. irg-5p::GFP, hsp-16.1p::GFP, rpt-6p::GFP, and hsp-4::GFP fluorescence was quantified as the fluorescence/worm area. For gst-4p::GFP, 100 µM ethanol-solubilized juglone was used as a positive control. Ethanol was also tested at 1% (vol/vol) as a control. For irg-5p::GFP, RPW-24 (100 µM) was used as a positive control. For quantification of nuclear localization of GFP fusion reporters, worms were scored as either localization positive or localization negative. DAF-16::GFP worms were scored as localization positive if >5 nuclei within the worm had localized GFP. All worms were imaged at the L4-young adult stage. […]

[1] = test system: glp-4(bn2) C. elegans exposed to P. aeruginosa PA14; test: P. aeruginosa liquid killing assay (effective rescue concentration); type: in vivo, Caenorhabditis elegans; details: glp-4(bn2) worms, ± 95% confidence interval
Description: For the first round of characterization, 69 novel small molecules previously selected on the basis of their ability to improve C. elegans survival during exposure to P. aeruginosa in liquid ([14]) were tested for the ability to interfere with bacterial growth. MICs were determined for each compound by growing P. aeruginosa strain PA14 in static culture in 384-well plates with serial 2-fold dilutions of compounds. No worms were used in these assays. Next, effective rescue concentrations (EC; defined as the minimum concentration that results in statistically significant survival, compared to dimethyl sulfoxide [DMSO]) ([15], [18]) were determined for each compound using the standard P. aeruginosa liquid killing assay. Sterile glp-4(bn2) worms were used in all liquid-based assays to limit artifacts (i.e., unlaid eggs will hatch and cause matricide).
FIG 1 LK molecules rescue C. elegans from P. aeruginosa in liquid killing. […] (B) Lipinski values for the five LK molecules, showing their molecular mass, predicted octanol-water partition coefficient, polar surface area, number of hydrogen donors and acceptors, and the number of rotatable bonds. (C) Minimum effective concentrations (EC) and 95% confidence interval, MICs (defined as the minimum concentration to prevent grown in LB media), and their ratio (MIC/EC). The minimum effective concentration was calculated from the lowest concentration that retained statistically significant rescue of glp-4(bn2) C. elegans, a temperature-sensitive sterile strain, from exposure to P. aeruginosa PA14. […] Compounds were added in serial 2-fold dilutions from 50 µM to 12.5 μM. *, P < 0.05; **, P < 0.01; ***, P < 0.001. P values were calculated using Student’s t test. At least six wells containing 20 worms each per condition per replicate were used for determination of liquid killing. EC values were calculated based on at least three biological replicates. Error bars represent the standard error of the mean.
Liquid killing of C. elegans was performed as previously described with some changes ([91]). In brief, an overnight culture of LB medium was inoculated with a single colony of Pseudomonas aeruginosa strain PA14. Then, 400 µl of culture was spread onto a 10-cm slow-kill agar plate ([91]) and grown for 24 h at 37°C, followed by 24 h at 25°C. Bacteria were scraped from the plate, resuspended in S Basal medium, and added to 384-well plates with small molecules dissolved in DMSO. Solution in wells contained a final concentration of 40% SK media, 59% S Basal medium, 1% DMSO, and small molecules. For all liquid-based killing assays, solvent control wells contained 1% DMSO. MgSO4 and CaCl2 (300 µM) and cholesterol (1.6 µg/ml) were added to aid in production of virulence factors. Worms were sorted into 384-well plates using a COPAS FlowSort (Union Biometrica, Holliston, MA), incubated at 25°C until the DMSO control was roughly 35 to 55% dead, washed four times using an EL406 microplate washer (BioTek, VT), and stained with 50 μl of Sytox Orange at 1 µM to fluorescently stain dead worms. Wells were imaged in bright-field and RFP channels using the BioTek Cytation5, followed by image analysis using the CellProfiler software package to calculate fraction of dead worms in each well. EC values were defined as the minimum concentration that provided statistically significant rescue. At least three biological replicates were performed.

| SMILES | gst-4p::GFP induction (SKN-1/Nrf activation) (SKN-1/Nrf pathway) | EC (minimum effective concentration giving statistically significant rescue) [1] |
| --- | --- | --- |
| COC(=O)/C=C/C(=O)Nc1ccccc1 [LK32] | induced gst-4p::GFP | 32 ± 0.0 µM and 32 µM |
| CNC(=O)Oc1c(Br)cc2sc(=O)oc2c1Br [LK34] | induced gst-4p::GFP | 9.3 ± 4.4 µM and 9.3 µM |
| CCN(CC)/N=N/c1ccc(C(=O)O)cc1 [LK35] |  | 17.3 ± 6.1 µM |
| CN(C)/N=N/c1ccc(-c2cn(Cc3ccccc3)cn2)cc1 [LK38] |  | 6.7 ± 2.0 µM |
| O=c1cc(CNc2ccc(Br)cc2)nc2sccn12 [LK56] | not activated | 7.3 ± 1.9 µM and 7.3 µM |
